According to ChEMBL document CHEMBL3734692, “Design and synthesis of 2-oxindole based multi-targeted inhibitors of PDK1/Akt signaling pathway for the treatment of glioblastoma multiforme” (Eur J Med Chem, 2015):
The source made the active and inactive calls. No cut-off for these calls is given here.

Key:
[1] = target: Cyclin-dependent kinase 5/CDK5 activator 1 (Homo sapiens) (UniProt Q00535+Q15078); test: Inhibition of CDK5/p25 (unknown origin) at 1 uM by selectscreen kinase profiling assay in presence of ATP; format: protein-complex assay
Sequence of Cyclin-dependent kinase 5/CDK5 activator 1 (Homo sapiens) (Q00535 whole entry): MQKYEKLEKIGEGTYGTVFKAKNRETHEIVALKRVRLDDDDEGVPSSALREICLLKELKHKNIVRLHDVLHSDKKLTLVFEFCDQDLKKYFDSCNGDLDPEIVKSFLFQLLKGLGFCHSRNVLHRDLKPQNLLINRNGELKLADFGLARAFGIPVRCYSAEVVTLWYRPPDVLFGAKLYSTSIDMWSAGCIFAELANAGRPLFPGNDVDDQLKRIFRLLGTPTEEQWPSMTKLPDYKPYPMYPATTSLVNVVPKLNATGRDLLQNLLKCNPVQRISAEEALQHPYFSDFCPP
Sequence of Cyclin-dependent kinase 5/CDK5 activator 1 (Homo sapiens) (Q15078 99-307 partner limits assumed): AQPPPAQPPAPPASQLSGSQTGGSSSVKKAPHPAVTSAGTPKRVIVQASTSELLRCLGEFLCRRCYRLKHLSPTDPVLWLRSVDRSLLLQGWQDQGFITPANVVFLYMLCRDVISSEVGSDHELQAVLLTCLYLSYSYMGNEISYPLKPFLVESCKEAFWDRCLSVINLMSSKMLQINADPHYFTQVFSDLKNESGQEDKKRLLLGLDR

[2] = target: Interleukin-1 receptor-associated kinase 4 (Homo sapiens) (UniProt Q9NWZ3); test: Inhibition of IRAK4 (unknown origin) at 1 uM by selectscreen kinase profiling assay in presence of ATP
Sequence of Interleukin-1 receptor-associated kinase 4 (Homo sapiens) (Q9NWZ3 whole entry): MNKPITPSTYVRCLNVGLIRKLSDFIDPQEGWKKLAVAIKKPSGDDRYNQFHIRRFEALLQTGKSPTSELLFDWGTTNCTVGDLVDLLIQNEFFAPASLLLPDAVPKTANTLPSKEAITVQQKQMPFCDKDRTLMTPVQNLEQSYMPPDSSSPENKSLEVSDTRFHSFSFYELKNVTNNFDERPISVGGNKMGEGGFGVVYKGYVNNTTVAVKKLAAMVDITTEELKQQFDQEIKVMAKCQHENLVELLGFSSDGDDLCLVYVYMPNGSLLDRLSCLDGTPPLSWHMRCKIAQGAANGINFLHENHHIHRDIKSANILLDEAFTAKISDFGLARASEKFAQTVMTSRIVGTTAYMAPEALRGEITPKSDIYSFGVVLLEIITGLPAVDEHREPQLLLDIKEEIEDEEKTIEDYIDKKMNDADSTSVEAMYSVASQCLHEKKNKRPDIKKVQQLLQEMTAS

[3] = target: MAP kinase-activated protein kinase 2 (Homo sapiens) (UniProt P49137); test: Inhibition of MAPKAPK2 (unknown origin) at 1 uM by selectscreen kinase profiling assay in presence of ATP
Sequence of MAP kinase-activated protein kinase 2 (Homo sapiens) (P49137 whole entry, looked up): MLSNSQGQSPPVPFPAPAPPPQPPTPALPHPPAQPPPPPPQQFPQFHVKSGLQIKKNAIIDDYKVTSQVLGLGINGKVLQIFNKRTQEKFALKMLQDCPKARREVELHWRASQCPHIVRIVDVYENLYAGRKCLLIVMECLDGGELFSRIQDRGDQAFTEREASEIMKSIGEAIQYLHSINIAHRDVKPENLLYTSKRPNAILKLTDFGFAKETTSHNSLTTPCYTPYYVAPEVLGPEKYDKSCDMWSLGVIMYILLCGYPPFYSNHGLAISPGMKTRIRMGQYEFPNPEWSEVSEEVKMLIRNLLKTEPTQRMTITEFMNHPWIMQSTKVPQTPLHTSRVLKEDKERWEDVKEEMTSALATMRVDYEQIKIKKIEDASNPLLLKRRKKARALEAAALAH

[4] = target: Ribosomal protein S6 kinase beta-1 (Homo sapiens) (UniProt P23443); test: Inhibition of RPS6KB1 (unknown origin) at 1 uM by selectscreen kinase profiling assay in presence of ATP
Sequence of Ribosomal protein S6 kinase beta-1 (Homo sapiens) (P23443 whole entry, looked up): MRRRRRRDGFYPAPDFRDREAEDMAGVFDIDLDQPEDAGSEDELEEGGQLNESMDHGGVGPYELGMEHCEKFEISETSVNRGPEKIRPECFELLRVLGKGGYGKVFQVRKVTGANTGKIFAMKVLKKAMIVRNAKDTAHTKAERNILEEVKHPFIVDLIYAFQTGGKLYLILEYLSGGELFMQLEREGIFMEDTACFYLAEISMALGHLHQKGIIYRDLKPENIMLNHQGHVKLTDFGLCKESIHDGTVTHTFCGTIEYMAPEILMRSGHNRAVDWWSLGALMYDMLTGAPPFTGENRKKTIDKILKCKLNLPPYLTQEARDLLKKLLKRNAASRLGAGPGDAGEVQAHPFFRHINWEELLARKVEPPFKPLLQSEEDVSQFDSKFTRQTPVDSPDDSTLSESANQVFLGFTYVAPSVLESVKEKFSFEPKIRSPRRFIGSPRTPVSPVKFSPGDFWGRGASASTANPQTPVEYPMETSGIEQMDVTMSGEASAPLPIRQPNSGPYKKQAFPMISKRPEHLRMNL

[5] = target: RAC-gamma serine/threonine-protein kinase (Homo sapiens) (UniProt Q9Y243); test: Inhibition of AKT3 (unknown origin) at 1 uM by selectscreen kinase profiling assay in presence of ATP
Sequence of RAC-gamma serine/threonine-protein kinase (Homo sapiens) (Q9Y243 whole entry): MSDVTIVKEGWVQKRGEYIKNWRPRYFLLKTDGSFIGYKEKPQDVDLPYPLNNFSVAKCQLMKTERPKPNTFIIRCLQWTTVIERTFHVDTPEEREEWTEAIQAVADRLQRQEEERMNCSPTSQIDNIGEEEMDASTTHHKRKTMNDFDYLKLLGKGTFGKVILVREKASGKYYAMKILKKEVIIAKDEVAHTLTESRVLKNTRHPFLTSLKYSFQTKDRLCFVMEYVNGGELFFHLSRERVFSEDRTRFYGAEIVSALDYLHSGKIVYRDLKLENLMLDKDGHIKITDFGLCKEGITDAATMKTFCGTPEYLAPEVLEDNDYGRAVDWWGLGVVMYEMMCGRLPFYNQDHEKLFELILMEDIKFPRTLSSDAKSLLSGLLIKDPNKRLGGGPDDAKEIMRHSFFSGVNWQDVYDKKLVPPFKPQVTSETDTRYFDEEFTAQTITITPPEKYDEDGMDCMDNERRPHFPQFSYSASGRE

ANGM-CSS [6] = test: Antiproliferative activity against human GSC derived from ANGM-CSS cells after 7 days by MTS assay; format: functional, cell-based
ANGM-CSS [7] = test: Induction of human GSC differentiation derived from ANGM-CSS cells assessed as up regulation of MAP2 mRNA expression at 1 uM after 7 days by RT-PCR analysis; format: functional, cell-based
ANGM-CSS [8] = test: Induction of human GSC differentiation derived from ANGM-CSS cells assessed as up regulation of GFAP mRNA expression at 1 uM after 7 days by RT-PCR analysis; format: functional, cell-based
[9] = target: Phosphatidylinositol 4,5-bisphosphate 3-kinase catalytic subunit gamma isoform (Homo sapiens) (UniProt P48736); test: Inhibition of PIK3Cgamma (unknown origin) at 1 uM by selectscreen kinase profiling assay in presence of ATP
Sequence of Phosphatidylinositol 4,5-bisphosphate 3-kinase catalytic subunit gamma isoform (Homo sapiens) (P48736 whole entry, looked up, canonical isoform): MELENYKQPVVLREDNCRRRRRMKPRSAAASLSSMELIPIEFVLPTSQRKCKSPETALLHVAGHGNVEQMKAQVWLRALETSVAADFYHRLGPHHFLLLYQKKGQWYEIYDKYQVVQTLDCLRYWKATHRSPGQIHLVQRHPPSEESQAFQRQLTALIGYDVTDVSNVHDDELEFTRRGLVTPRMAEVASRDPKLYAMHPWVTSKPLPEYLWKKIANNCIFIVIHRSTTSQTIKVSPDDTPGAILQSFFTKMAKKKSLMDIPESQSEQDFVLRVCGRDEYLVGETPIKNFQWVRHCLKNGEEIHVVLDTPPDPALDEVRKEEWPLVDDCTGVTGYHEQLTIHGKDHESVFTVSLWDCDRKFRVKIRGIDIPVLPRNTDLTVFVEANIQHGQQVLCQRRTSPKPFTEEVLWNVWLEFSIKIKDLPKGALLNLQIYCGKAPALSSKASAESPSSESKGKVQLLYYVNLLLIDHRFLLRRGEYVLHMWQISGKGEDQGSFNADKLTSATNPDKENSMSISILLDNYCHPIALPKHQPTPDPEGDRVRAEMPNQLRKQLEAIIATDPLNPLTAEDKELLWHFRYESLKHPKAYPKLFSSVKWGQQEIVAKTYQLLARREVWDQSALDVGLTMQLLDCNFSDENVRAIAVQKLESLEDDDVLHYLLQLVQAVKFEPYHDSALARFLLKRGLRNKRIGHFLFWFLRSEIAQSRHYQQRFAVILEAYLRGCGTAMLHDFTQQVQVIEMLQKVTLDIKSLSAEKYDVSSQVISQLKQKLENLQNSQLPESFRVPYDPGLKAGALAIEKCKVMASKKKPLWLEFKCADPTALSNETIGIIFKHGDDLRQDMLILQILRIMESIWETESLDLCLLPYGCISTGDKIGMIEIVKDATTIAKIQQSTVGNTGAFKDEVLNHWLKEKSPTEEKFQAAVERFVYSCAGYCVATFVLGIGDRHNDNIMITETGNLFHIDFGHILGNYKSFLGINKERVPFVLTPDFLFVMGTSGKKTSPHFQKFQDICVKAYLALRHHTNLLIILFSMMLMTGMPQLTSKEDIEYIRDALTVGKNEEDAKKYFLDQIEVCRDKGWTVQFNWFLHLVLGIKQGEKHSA

ANGM-CSS [10] = test: Antiproliferative activity against human ANGM-CSS cells assessed as inhibition of cell growth after 72 to 144 hrs by WST1 assay; format: functional, cell-based

SMILES: COc1cc2c(cc1OC)CN(CC(=O)Nc1ccc3c(c1)/C(=C/c1cnc[nH]1)C(=O)N3)CC2
- inhibition [1]: 45%
- inhibition [2]: 5%
- inhibition [3]: -2%
- inhibition [4]: 18%
- inhibition [5]: 8%
- inhibition (ANGM-CSS [6]): Dose-dependent effect
- Activity (ANGM-CSS [7]): Active
- Activity (ANGM-CSS [8]): Active
- inhibition [9]: 5%
- growth inhibition (GI) (ANGM-CSS [10]): Dose-dependent effect
